Patent US20190223437A1, “ACTIVE COMPOUND COMBINATIONS COMPRISING A 5-SUBSTITUTED IMIDAZOLE DERIVATIVE” (BAYER CROPSCIENCE AKTIENGESELLSCHAFT, priority 2016, published 2019)
Read-outs that look alike come from different tables or passages of the source. Marks after values point to notes of the source that are not given here.

Assay: Measurement of Log P values by HPLC on reversed phase columns (EEC directive 79/831 Annex V.A8)
Type: physicochemical
Settings: for chromatographic logP: reversed phase HPLC column
[1] = method [a]: LC-UV, acidic range, 0.1% formic acid in water and acetonitrile as eluent, Table 1, compounds of formula (I)

Row | SMILES | LogP | also measured
1 | OC(Cc1ccccc1F)(Cn1cncc1C1CC1)C1(Cl)CC1 (racemic) [Example I-37] | 1.86^[a] | 
2 | N#Cc1cncn1CC(O)(Cc1ccncc1Br)C1(Cl)CC1 (racemic) [Example I-46] | 1.94^[a] | 
3 | N#Cc1cncn1CC(O)(Cc1cc(Br)ncc1Br)C1(Cl)CC1 (racemic) [Example I-47] | 2.73^[a] | 
4 | N#Cc1cncn1CC(O)(Cc1ccnc(Cl)c1Cl)C1(Cl)CC1 (racemic) [Example I-50] | 2.47^[a] | 
5 | N#Cc1cncn1CC(O)(Cc1ccc(Oc2ccc(Cl)cc2)cc1Cl)C1(Cl)CC1 (racemic) [Example I-53] | 4.54^[a] | 
6 | N#Cc1cncn1CC(O)(Cc1cc(Cl)cc(Cl)c1)C1(Cl)CC1 (racemic) [Example I-58] | 3.55^[a] | 
7 | N#Cc1cncn1CC(O)(Cc1ccnc(Cl)c1)C1(Cl)CC1 (racemic) [Example I-62] | 2.04^[a] | 
8 | N#Cc1cncn1CC(O)(Cc1ccc(-c2ccccc2)cc1)C1(Cl)CC1 (racemic) [Example I-63] |  | LogP [1]: 3.68^[a]
9 | N#Cc1cncn1CC(O)(Cc1ccc(Cl)cc1)C1(Cl)CC1 (racemic) [Example I-64] | 3.10^[a] | 
10 | CC1(C(O)(Cc2ccccc2Cl)Cn2cncc2C#N)CC1 (racemic) [Example I-79] | 2.87^[a] | 
11 | N#Cc1cncn1CC(O)(Cc1ccccc1Cl)C1CC1 (racemic) [Example I-80] | 2.57^[a] | 
12 | CC(C)C(O)(Cc1ccccc1Cl)Cn1cncc1C#N (racemic) [Example I-82] | 2.67^[a] | 
13 | CC(C)(C)CC(O)(Cc1ccccc1Cl)Cn1cncc1C#N (racemic) [Example I-83] | 3.55^[a] | 
14 | N#Cc1cncn1CC(O)(Cc1ccccc1Cl)CC1CC1 (racemic) [Example I-84] | 2.84^[a] | 
15 | N#Cc1cncn1CC(O)(Cc1cccc(Cl)c1Cl)C1CCC1 (racemic) [Example I-85] | 3.31^[a] | 
16 | CC(C)(C)CC(O)(Cc1ccc(Cl)cc1)Cn1cncc1C#N (racemic) [Example I-86] | 3.37^[a] | 
17 | N#Cc1cncn1CC(O)(Cc1ccncc1C(F)(F)F)C1(Cl)CC1 (racemic) [Example I-92] | 2.18^[a] | 
18 | N#Cc1cncn1CC(O)(Cc1ccc(Cl)cc1F)C1(F)CC1 (racemic) [Example I-96] | 2.78^[a] | 
19 | N#Cc1cncn1CC(O)(Cc1ccccc1Cl)C1(F)CC1 (racemic) [Example I-98] | 2.53^[a] | 
20 | N#Cc1cncn1CC(O)(Cc1ccc(F)cc1)C1(F)CC1 (racemic) [Example I-100] | 2.35^[a] | 

Row | SMILES | LogP | also measured
21 | OC(Cc1ccc(Cl)cc1F)(Cn1cncc1Cl)C1(Cl)CC1 (single isomer, unassigned) [Example I-113] | 2.54^[a] | 
22 | OC(Cc1ccccc1Cl)(Cn1cncc1Cl)C1(Cl)CC1 (stereo not shown) [Example I-02] |  | LogP [1]: 2.32; LogP (method [c]: LC-UV, acidic range, 0.1% phosphoric acid and acetonitrile as eluent, Table 1): 2.00
23 | OC(Cn1cncc1Cl)(C(F)c1ccccc1Cl)C1(Cl)CC1 (stereo not shown) [Example I-05] | 2.17^[a] | 
24 | Cc1cncn1CC(O)(C(F)c1ccccc1Cl)C1(Cl)CC1 (stereo not shown) [Example I-13] | 1.75^[a] | 
25 | OC(Cn1cncc1Br)(C(F)c1ccccc1Cl)C1(Cl)CC1 (stereo not shown) [Example I-23] | 2.32^[a] | 
26 | N#Cc1cncn1CC(O)(C(F)c1ccccc1Cl)C1(Cl)CC1 (stereo not shown) [Example I-24] | 2.82^[a] | 
27 | OC(Cn1cncc1Cl)(C(F)c1ccccc1F)C1(Cl)CC1 (stereo not shown) [Example I-28] | 2.01^[a] | 
28 | N#Cc1cncn1CC(O)(Cc1ccc(F)c(F)c1F)C1CCC1 (stereo not shown) [Example I-104] | 2.78^[a] | 
29 | CC(C)C(O)(Cc1ccc(F)c(F)c1F)Cn1cncc1C#N (stereo not shown) [Example I-105] | 2.78^[a] | 
30 | N#Cc1cncn1CC(O)(Cc1ccc(F)c(F)c1)C1(Cl)CC1 (stereo not shown) [Example I-109] | 2.78^[a] | 
31 | NC(=O)c1cncn1CC(O)(Cc1ccc(Cl)cc1F)C1CC1 (stereo not shown) [Example I-116] | 1.49^[a] | 
32 | N#Cc1cncn1CC(O)(Cc1ccc(Cl)cc1F)C1CCC1 (stereo not shown) [Example I-117] | 3.13^[a] | 
33 | CC(C)C(O)(Cc1ccc(Cl)cc1F)Cn1cncc1C#N (stereo not shown) [Example I-118] | 2.91^[a] | 
34 | COC(Cc1ccc(Cl)cc1F)(Cn1cncc1C#N)C1CC1 (stereo not shown) [Example I-121] | 3.31^[a] | 
35 | C=CCOC(Cc1ccc(Cl)cc1F)(Cn1cncc1Cl)C1(Cl)CC1 (stereo not shown) [Example I-123] | 3.31^[a] | 
36 | CC(C)C(O)(Cc1ccc(F)cc1F)Cn1cncc1C#N (stereo not shown) [Example I-128] | 2.52^[a] | 
37 | N#Cc1cncn1C[C@](O)(Cc1ccccc1F)C1(Cl)CC1 [Example I-132, 1-[(2R)-2-(1-chlorocyclopropyl)-3-(2-fluorophenyl)-2-hydroxypropyl]-1H-imidazole-5-carbonitrile] |  | chromatographic logP [1]: 2.59
38 | N#Cc1cncn1C[C@@](O)(Cc1ccccc1F)C1(Cl)CC1 [Example I-133, 1-[(2S)-2-(1-chlorocyclopropyl)-3-(2-fluorophenyl)-2-hydroxypropyl]-1H-imidazole-5-carbonitrile] |  | chromatographic logP [1]: 2.59
39 | O=C(Cc1ccccc1F)c1cncn1CC(O)(Cc1ccccc1F)C1(Cl)CC1 (stereo not shown) [Example I-134] | 3.60^[a] | 

The next lines start with results.

Row | LogP | SMILES | also measured
40 | 2.10^[a] | OC(Cc1ccccc1F)(Cn1cncc1Br)C1(Cl)CC1 (racemic) [Example I-33] | 
41 | 1.67^[a] | COc1cncn1CC(O)(Cc1ccccc1F)C1(Cl)CC1 (racemic) [Example I-35] | 
42 | 1.89^[a] | C#Cc1cncn1CC(O)(Cc1ccccc1F)C1(Cl)CC1 (racemic) [Example I-36] | 
43 | 2.09^[a] | C#Cc1cncn1CC(O)(Cc1ccccc1Cl)C1(Cl)CC1 (racemic) [Example I-38] | 
44 | 2.04^[a] | OC(Cc1ccccc1)(Cn1cncc1Cl)C1(Cl)CC1 (racemic) [Example I-39] | 
45 | 3.52^[a] | N#Cc1cncn1CC(O)(Cc1ccc(Br)cc1Cl)C1(Cl)CC1 (racemic) [Example I-41] | 
46 | 3.24^[a] | N#Cc1cncn1CC(O)(Cc1ccc(Br)cc1F)C1(Cl)CC1 (racemic) [Example I-42] | 
47 | 2.64^[a] | OC(Cc1ccc(Br)cc1F)(Cn1cncc1Cl)C1(Cl)CC1 (racemic) [Example I-44] | 
48 | 3.25^[a] | N#Cc1cncn1CC(O)(Cc1cccc(Cl)c1Cl)C1(Cl)CC1 (racemic) [Example I-49] | 
49 | 2.93^[a] | COc1ccccc1CC(O)(Cn1cncc1C#N)C1(Cl)CC1 (racemic) [Example I-55] | 
50 | 2.62^[a] | N#Cc1cncn1CC(O)(Cc1cc(Cl)ncc1Cl)C1(Cl)CC1 (racemic) [Example I-56] | 
51 | 1.88^[a] | N#Cc1cncn1CC(O)(Cc1ccncc1Cl)C1(Cl)CC1 (racemic) [Example I-57] | 
52 | 2.69^[a] | OC(Cc1cccc(Cl)c1Cl)(Cn1cncc1Cl)C1(Cl)CC1 (racemic) [Example I-66] | 
53 | 2.08^[a] | OC(Cc1ccnc(Cl)c1Cl)(Cn1cncc1Cl)C1(Cl)CC1 (racemic) [Example I-67] | 
54 | 2.69^[a] | Cc1ccc(CC(O)(Cn2cncc2Cl)C2(Cl)CC2)c(C)c1 (racemic) [Example I-68] | 
55 | 2.33^[a] | Cc1ccccc1CC(O)(Cn1cncc1Cl)C1(Cl)CC1 (racemic) [Example I-71] | 
56 | 1.52^[a] | OC(Cc1ccncc1Cl)(Cn1cncc1Cl)C1(Cl)CC1 (racemic) [Example I-72] | 
57 | 2.23^[a] | OC(Cc1cc(Cl)nc(Cl)c1)(Cn1cncc1Cl)C1(Cl)CC1 (racemic) [Example I-74] | 
58 | 1.62^[a] | OC(Cc1ccnc(Cl)c1)(Cn1cncc1Cl)C1(Cl)CC1 (racemic) [Example I-75] | 
59 | 1.50^[a] | Nc1cncn1CC(O)(Cc1ccccc1Cl)C1(Cl)CC1 (racemic) [Example I-78] | 
60 | 2.62^[a] | OC(Cc1ccccc1C(F)(F)F)(Cn1cncc1Cl)C1(Cl)CC1 (racemic) [Example I-89] | 

Row | LogP | SMILES | also measured
61 | 2.82^[a] | COC(=O)c1cncn1CC(O)(Cc1ccccc1Cl)C1(Cl)CC1 (stereo not shown) [Example I-01] | 
62 | 1.72^[a] | Cc1cncn1CC(O)(Cc1ccccc1Cl)C1(Cl)CC1 (stereo not shown) [Example I-03] | 
63 | 2.27^[a] | OC(Cc1ccccc1Cl)(Cn1cncc1Br)C1(Cl)CC1 (stereo not shown) [Example I-04] | 
64 | 1.57^[a] | OC(Cc1cccnc1Cl)(Cn1cncc1Cl)C1(Cl)CC1 (stereo not shown) [Example I-07] | 
65 | 2.47^[a] | OC(Cc1ccc(F)cc1Cl)(Cn1cncc1Cl)C1(Cl)CC1 (stereo not shown) [Example I-08] | 
66 | 1.22^[a] | Cc1cncn1CC(O)(Cc1cccnc1Cl)C1(Cl)CC1 (stereo not shown) [Example I-10] | 
67 | 2.02^[a] | OC(Cc1c(Cl)ccnc1Cl)(Cn1cncc1Cl)C1(Cl)CC1 (stereo not shown) [Example I-11] | 
68 | 2.14^[a] | OC(Cc1ccccc1Cl)(Cn1cncc1I)C1(Cl)CC1 (stereo not shown) [Example I-14] | 
69 | 3.63^[a] | OC(Cc1ccccc1Cl)(Cn1cncc1C(F)(F)F)C1(Cl)CC1 (stereo not shown) [Example I-15] | 
70 | 1.94^[a] | OC(Cc1ccccc1Cl)(Cn1cncc1F)C1(Cl)CC1 (stereo not shown) [Example I-16] | 
71 | 2.18^[a] | OC(Cc1cc(Cl)ncc1Cl)(Cn1cncc1Cl)C1(Cl)CC1 (stereo not shown) [Example I-17] | 
72 | 2.01^[a] | OC(Cc1cc(F)ncc1Cl)(Cn1cncc1Cl)C1(Cl)CC1 (stereo not shown) [Example I-18] | 
73 | 1.66^[a] | N#CCc1cncn1CC(O)(Cc1ccccc1Cl)C1(Cl)CC1 (stereo not shown) [Example I-21] | 
74 | 2.08^[a] | CSc1cncn1CC(O)(Cc1ccccc1Cl)C1(Cl)CC1 (stereo not shown) [Example I-22] | 
75 | 1.56^[a] | OC(Cc1cccnc1Cl)(Cn1cncc1Br)C1(Cl)CC1 (stereo not shown) [Example I-25] | 
76 | 2.01^[a] | N#Cc1cncn1CC(O)(Cc1cccnc1Cl)C1(Cl)CC1 (stereo not shown) [Example I-26] | 
77 | 2.55^[a] | OC(Cc1ccc(Cl)cc1F)(Cn1cncc1Br)C1(Cl)CC1 (stereo not shown) [Example I-30] | 
78 | 2.07^[a] | OC(Cc1ccccc1F)(Cn1cncc1Cl)C1(Cl)CC1 (stereo not shown) [Example I-32] | 
79 | 2.34^[a] | Cc1ccc(CC(O)(Cn2cncc2Cl)C2(Cl)CC2)c(F)c1 (stereo not shown) [Example I-108] | 
80 | 2.23^[a] | OC(Cc1ccc(F)c(F)c1)(Cn1cncc1Cl)C1(Cl)CC1 (stereo not shown) [Example I-110] | 
81 | 3.10^[a] | CCOC(Cc1ccc(Cl)cc1F)(Cn1cncc1Cl)C1(Cl)CC1 (stereo not shown) [Example I-122] | 
